From patent US20170202838A1, “IMMUNOMODULATOR” (TAIHO PHARMACEUTICAL CO., LTD., priority 2015, published 2017)

How the values were obtained:
K1735M2 [1] = experiment: Tumor volume of subcutaneous mouse melanoma cell line, potentiation of anti-PD-1 or anti-PD-L1 antibody, in vivo model (Example 10); details: Compound (I) 50 mg/kg, antibody 100 μg/mouse, alone or in combination (FIG. 12)
Method: A cell suspension of the mouse melanoma cell line K1735M2 was prepared with the use of PBS(-) and 50% Matrigel, and the cell suspension was injected subcutaneously into mice at 1×10^6 cells/mouse. The mice were divided into groups based on their body weights 1 day after implantation, Compound (I) (50 mg/kg) or the anti-PD-1 antibody or anti-PD-L1 antibody (100 μg/mouse) was administered thereto alone or either the anti-PD-1 antibody or the anti-PD-L1 antibody was administered in combination with Compound (I), and the tumor volume was measured with the elapse of time. The tumor volume was determined on the basis of the longer diameter and the shorter diameter of the tumor measured percutaneously in accordance with Equation A shown above.

B16F10 = experiment: Pulmonary metastatic nodules after intravenous injection of mouse melanoma cell line, in vivo model (Example 8); details: oral 12.5 mg/kg or 50 mg/kg, 14 days after implantation, compared with control group (FIG. 10)
Method: A cell suspension of the mouse melanoma cell line B16F10 was prepared with the use of PBS(-), and the cell suspension was injected intravenously into the mouse caudal portion at 5×10^5 cells/mouse. Compound (I) was administered orally to the mouse model at 12.5 mg/kg or 50 mg/kg on the previous day of B16F10 implantation. The number of pulmonary metastatic nodules was evaluated 14 days after implantation (i.e., 15 days after drug administration). […] On the basis of the results above and the results of Reference Example 1 such that the tumor growth inhibitory effects were not observed in the in vitro model, it was deduced that the decreased number of pulmonary metastatic nodules was achieved by the immunomodulation activity of Compound (I).

EGFR tyrosine kinase = EGFR tyrosine kinase (Homo sapiens, UniProt P00533); details: known from WO 2013/125709; cited from earlier work
K1735M2 [2] = experiment: In vitro growth of mouse melanoma cell line K1735M2, CellTiter-Glo2.0 (Reference Example 1); format: cell-based; details: K1735M2, 3 days culture
Method: (§1) The mouse melanoma cell lines B16F10 and K1735M2 and the mouse colon cancer cell line MC38 were seeded in a 96-well plate at 3×10^3 cells/well. Compound (I) or the EGFR tyrosine kinase inhibitor (i.e., Erlotinib, Afatinib, AZD9291, or Co1686 (Rociletinib)) that had been diluted to the given concentration was added 24 hours later. Thereafter, culture was conducted for 3 days, and the number of cells was determined using CellTiter-Glo2.0 (Promega, G9243).

mouse spleen cells = experiment: Induction of IL-2 production of mouse spleen cells stimulated with anti-CD3 antibody and anti-CD28 antibody (Example 1); format: cell-based
Method: The mouse spleen was extracted, grinded with glass slides with frosted areas, and then subjected to hemolysis, so as to obtain spleen cells. The resulting spleen cells were introduced into a complete medium (i.e., RPMI-1640 supplemented with 10% heat-inactivated FBS, 100 U/ml penicillin, 100 μg/ml streptomycin, and 55 μM 2-mercaptoethanol) to a cell density of 2×10^6 cells/ml, the anti-CD3 antibody and the anti-CD28 antibody were added thereto to the final concentrations of 3 μg/ml and 0.5 μg/ml, respectively, and Compound (I) was further added thereto to each final concentration. The culture solution was seeded in a 96-well plate at 200 μl/well and then cultured in an incubator at 37° C. in the presence of 5% CO2 for 2 days. The culture supernatant was recovered, and the concentration of IL-2 contained therein was measured via ELISA using anti-mIL-2 antibody.
Also, culture was conducted in the same manner with the addition of the anti-CD3 antibody at a variable final concentration, the anti-CD28 antibody at the final concentration of 0.5 μg/ml, and Compound (I) at the final concentration of 0.0 μM or 0.1 μM, and the IL-2 concentration in the culture supernatant was measured.

MC38 [3] = experiment: In vitro growth of mouse colon cancer cell line MC38, CellTiter-Glo2.0 (Reference Example 1); format: cell-based; details: MC38, 3 days culture
Method: as §1

MC38 [4] = experiment: Tumor volume of subcutaneous mouse colon cancer cell line, in vivo model (Example 9); details: Compound (I) 50 mg/kg, compared with control group (FIG. 11)
Method: A cell suspension of the mouse colon cancer cell line MC38 was prepared with the use of PBS(-) and 50% Matrigel, and the cell suspension was injected subcutaneously into mice at 1×10^6 cells/mouse. The mice were divided into groups when the average subcutaneous tumor volume reached approximately 50 mm^3, Compound (I) was administered at 50 mg/kg or the anti-PD-1 antibody was administered at 100 μg/mouse, and the tumor volume was measured with the elapse of time. The tumor volume was determined on the basis of the longer diameter and the shorter diameter of the tumor measured percutaneously in accordance with Equation A shown below.
Tumor volume (mm^3)=longer diameter (mm)×shorter diameter (mm)^2/2 (Equation A)

colon26 = experiment: Analysis of immunocytes in spleen cells in mouse model subcutaneously implanted with colon cancer cell line (Example 6); format: in vivo; details: Compound (I) 50 mg/kg and/or anti-PD-1 antibody 100 μg/mouse
Method: A cell suspension of the mouse colon cancer cell line (colon26) was prepared with the use of PBS(-) and 50% Matrigel, and the cell suspension was implanted into the syngeneic BALB/c mice via subcutaneous injection at 2×10^3 cells/mouse. The mice were divided into groups based on their body weights 1 day after implantation, and Compound (I) was administered thereto at 50 mg/kg and/or the anti-PD-1 antibody was administered thereto at 100 μg/mouse. A control group to which neither Compound (I) nor the anti-PD-1 antibody had been administered was also prepared. The spleen cells were sampled 21 days after implantation and analyzed via flow cytometry with the use of antibodies each reacting with a relevant immunocyte surface marker.

EG.7-OVA = experiment: Peripheral blood immunocyte analysis in mouse model subcutaneously implanted with OVA-expressing thymoma cell line (Example 5); format: in vivo; details: Compound (I) 50 mg/kg, 14 days after implantation, compared with control group and anti-PD-1 antibody group (FIG. 6)
Method: A cell suspension of the OVA-expressing mouse thymoma cell line (EG.7-OVA) was prepared with the use of PBS(-) and 50% Matrigel, and the cell suspension (1×10^4 cells/mouse) was implanted into the syngeneic C57BL/6n mice via subcutaneous injection. The mice were divided into groups based on their body weights 1 day after implantation, and Compound (I) was administered thereto at 50 mg/kg or the anti-PD-1 antibody was administered thereto at 100 μg/mouse. A control group to which neither Compound (I) nor the anti-PD-1 antibody had been administered was also prepared. The peripheral blood was sampled 14 days after implantation and analyzed via flow cytometry with the use of antibodies each reacting with a relevant immunocyte surface marker, so as to determine the relative number of CD4-positive cells, CD8-positive cells, and CD4-negative, CD8-negative, and NK1.1-positive cells. […] In the group to which Compound (I) had been administered, the number of all cells increased, compared with the control group and the group to which the anti-PD-1 antibody had been administered.

[5] = 21 days after implantation (FIG. 7)
[6] = 21 days after implantation, compared with control group (FIG. 8)

Chain of EGFR tyrosine kinase (P00533 25-1210): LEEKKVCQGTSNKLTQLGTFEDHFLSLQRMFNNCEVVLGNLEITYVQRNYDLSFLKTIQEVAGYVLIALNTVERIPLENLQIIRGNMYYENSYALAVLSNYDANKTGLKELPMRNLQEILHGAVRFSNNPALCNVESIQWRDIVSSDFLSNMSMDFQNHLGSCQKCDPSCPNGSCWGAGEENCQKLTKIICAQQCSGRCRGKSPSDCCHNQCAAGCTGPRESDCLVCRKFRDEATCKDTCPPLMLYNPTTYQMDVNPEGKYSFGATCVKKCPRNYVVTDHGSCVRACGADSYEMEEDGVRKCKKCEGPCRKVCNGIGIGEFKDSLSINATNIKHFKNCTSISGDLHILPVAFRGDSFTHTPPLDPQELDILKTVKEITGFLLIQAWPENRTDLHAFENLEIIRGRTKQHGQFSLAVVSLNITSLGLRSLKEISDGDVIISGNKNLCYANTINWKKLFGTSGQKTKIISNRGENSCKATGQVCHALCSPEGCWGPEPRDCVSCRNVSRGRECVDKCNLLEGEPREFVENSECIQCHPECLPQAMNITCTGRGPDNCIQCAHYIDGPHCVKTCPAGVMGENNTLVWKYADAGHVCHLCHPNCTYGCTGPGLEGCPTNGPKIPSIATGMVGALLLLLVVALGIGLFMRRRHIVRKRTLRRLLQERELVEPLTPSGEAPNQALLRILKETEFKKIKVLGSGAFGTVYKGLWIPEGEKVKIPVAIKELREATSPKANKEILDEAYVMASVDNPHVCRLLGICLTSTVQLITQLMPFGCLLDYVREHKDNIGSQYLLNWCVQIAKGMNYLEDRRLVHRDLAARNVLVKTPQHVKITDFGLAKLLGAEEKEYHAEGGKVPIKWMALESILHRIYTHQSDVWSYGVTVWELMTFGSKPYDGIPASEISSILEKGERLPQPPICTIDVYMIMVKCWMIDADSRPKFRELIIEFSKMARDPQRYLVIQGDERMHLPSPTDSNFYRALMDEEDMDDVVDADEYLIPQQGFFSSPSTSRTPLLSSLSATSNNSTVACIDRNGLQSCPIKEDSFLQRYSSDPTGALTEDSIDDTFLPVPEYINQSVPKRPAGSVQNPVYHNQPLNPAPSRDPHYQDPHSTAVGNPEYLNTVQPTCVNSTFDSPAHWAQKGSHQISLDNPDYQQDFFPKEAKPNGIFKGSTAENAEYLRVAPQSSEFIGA

In the case of `C=CC(=O)N[C@H]1CCc2c(-c3cnc4ccccc4c3)c3c(N)ncnc3n2C1` [Compound (I), (S)—N-(4-amino-5-(quinolin-3-yl)-6,7,8,9-tetrahydropyrimido[5,4-b]indolizin-8-yl)acrylamide], the “extent of tumor growth inhibition (tumor volume)” value (K1735M2 [1]) is listed as “not sufficient”, the “number of pulmonary metastatic nodules” value (B16F10) is listed as “decreased in a dose-dependent manner” and the “inhibition of EGFR tyrosine kinase” value (EGFR tyrosine kinase) is listed as “inhibit EGFR tyrosine kinase with high selectivity”. For the same compound, the “suppression of cell growth (number of cells)” value (K1735M2 [2]) was “did not suppress the growth of any cells”, the “concentration of IL-2 produced by mouse spleen cells in the culture supernatant” value (mouse spleen cells; anti-CD3 antibody 3 μg/ml and anti-CD28 antibody 0.5 μg/ml constant, Compound (I) variable, 2 days, ELISA (FIG. 1)) was “increased as the amount of Compound (I) added increased” and the “concentration of IL-2 produced by mouse spleen cells in the culture supernatant” value (mouse spleen cells; anti-CD3 antibody variable, anti-CD28 antibody 0.5 μg/ml, Compound (I) 0.1 μM vs 0.0 μM (FIG. 2)) was “IL-2 production was induced upon stimulation with the anti-CD3 antibody”. For the same compound, the “suppression of cell growth (number of cells)” value (MC38 [3]) was “did not suppress the growth of any cells”, the “extent of tumor growth inhibition (tumor volume)” value (MC38 [4]) was “greater” and the “relative number of CD4-positive and CD69-positive cells in spleen cells” value (colon26; [5]) was “greater than those in the control group”. For the same compound, the “relative number of CD4-positive, CD44-positive, and CD62L-negative cells in spleen cells” value (colon26; [5]) was “greater than those in the control group”, the “CD44 expression level in CD4-positive cells (MFI)” value (colon26; [6]) was “increased” and the “CD62L expression level in CD4-positive cells (MFI)” value (colon26; [6]) was “decreased”. For the same compound, the “relative number of CD4-negative, CD8-negative, and NK1.1-positive cells in peripheral blood” value (EG.7-OVA) was “increased”, the “relative number of CD4-positive cells in peripheral blood” value (EG.7-OVA) was “increased” and the “relative number of CD8-positive cells in peripheral blood” value (EG.7-OVA) was “increased”.
